Reference: US10280170B2, “Substituted 4,5,6,7-tetrahydro-pyrazolo[1,5-a]pyrazine derivatives and 5,6,7,8-tetrahydro-4H-pyrazolo[1,5-a][1,4]diazepine derivatives as Ros1 inhibitors” (Janssen Pharmaceutica NV, priority 2014, dated 2019)
Where two headings read alike, the source gives them in different places.

Columns and labels:
Ros1 enzyme = target: T1, Ros1 enzyme (Homo sapiens, UniProt P08922); assay: Ros1 enzymatic assay; type: biochemical; conditions: Ros1 enzymatic assay; for IC50: read-out: ROS1 pIC50 (converted)
T1 construct: 0.5 μg/ml Ros1 enzyme
T1 sequence (P08922 28-2347): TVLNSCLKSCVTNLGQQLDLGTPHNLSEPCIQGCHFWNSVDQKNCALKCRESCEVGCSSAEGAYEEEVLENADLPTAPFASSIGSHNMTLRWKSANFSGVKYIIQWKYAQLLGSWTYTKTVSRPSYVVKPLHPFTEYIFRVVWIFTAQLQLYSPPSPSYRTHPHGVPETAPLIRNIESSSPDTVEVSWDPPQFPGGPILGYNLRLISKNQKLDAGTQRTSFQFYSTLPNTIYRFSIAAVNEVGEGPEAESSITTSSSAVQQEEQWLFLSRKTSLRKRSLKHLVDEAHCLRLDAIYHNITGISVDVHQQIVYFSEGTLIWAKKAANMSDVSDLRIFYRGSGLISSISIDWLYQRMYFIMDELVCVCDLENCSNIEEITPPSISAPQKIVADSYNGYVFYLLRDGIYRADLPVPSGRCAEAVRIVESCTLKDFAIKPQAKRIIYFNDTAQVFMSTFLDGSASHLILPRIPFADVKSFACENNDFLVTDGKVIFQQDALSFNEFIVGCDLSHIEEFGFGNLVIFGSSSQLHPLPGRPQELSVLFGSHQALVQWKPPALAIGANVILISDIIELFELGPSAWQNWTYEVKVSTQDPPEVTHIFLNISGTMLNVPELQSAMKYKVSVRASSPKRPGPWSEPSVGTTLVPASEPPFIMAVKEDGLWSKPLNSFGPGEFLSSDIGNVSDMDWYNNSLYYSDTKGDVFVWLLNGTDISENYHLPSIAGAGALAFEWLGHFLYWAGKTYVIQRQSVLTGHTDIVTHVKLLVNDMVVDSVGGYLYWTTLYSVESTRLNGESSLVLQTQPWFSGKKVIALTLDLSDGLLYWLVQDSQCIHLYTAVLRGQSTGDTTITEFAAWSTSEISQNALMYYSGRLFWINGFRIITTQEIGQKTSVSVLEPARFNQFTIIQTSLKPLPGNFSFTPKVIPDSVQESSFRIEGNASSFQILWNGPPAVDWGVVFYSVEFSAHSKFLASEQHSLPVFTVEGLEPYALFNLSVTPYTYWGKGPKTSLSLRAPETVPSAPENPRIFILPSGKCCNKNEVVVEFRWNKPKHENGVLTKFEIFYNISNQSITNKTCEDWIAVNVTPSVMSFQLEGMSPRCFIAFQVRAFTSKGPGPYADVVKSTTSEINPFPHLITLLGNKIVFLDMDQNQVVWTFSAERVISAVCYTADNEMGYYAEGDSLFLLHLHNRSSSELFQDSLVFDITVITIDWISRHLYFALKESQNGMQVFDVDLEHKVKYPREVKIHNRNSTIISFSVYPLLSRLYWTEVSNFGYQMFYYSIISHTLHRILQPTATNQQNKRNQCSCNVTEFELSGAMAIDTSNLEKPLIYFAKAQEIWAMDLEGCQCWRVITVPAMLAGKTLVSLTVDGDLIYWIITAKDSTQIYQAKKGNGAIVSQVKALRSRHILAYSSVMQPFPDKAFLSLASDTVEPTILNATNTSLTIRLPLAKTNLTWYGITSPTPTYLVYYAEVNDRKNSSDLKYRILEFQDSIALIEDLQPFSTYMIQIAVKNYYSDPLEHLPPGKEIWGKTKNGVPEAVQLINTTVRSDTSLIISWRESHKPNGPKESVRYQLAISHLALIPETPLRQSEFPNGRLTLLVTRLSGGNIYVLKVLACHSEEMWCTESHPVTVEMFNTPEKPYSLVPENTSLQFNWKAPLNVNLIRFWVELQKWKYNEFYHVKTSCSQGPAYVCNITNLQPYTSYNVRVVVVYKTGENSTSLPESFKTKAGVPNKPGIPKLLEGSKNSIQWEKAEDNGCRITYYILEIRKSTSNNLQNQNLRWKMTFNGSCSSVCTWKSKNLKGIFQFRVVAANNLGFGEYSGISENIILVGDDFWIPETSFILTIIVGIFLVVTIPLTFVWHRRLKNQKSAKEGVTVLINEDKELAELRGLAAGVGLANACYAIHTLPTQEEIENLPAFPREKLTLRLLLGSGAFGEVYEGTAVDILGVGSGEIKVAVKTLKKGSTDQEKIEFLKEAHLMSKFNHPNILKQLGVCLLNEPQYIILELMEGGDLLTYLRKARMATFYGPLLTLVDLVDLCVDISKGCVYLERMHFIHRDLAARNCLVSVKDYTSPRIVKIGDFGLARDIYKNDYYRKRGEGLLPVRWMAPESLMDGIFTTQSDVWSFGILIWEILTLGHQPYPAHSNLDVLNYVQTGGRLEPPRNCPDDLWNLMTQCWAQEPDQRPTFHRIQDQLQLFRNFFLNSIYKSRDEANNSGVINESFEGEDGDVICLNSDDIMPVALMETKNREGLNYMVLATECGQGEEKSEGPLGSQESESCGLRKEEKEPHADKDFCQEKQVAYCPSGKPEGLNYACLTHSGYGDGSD
Outline: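 Signal came from streptavidin-coupled imaging beads binding radiolabelled IRS-Tide after a 120 min room-temperature kinase reaction, quenched with 5 mM EDTA and 50 μM cold ATP. Enzyme mix held Ros1 at 0.5 μg/ml; substrate mix held 6 μg/ml IRS-Tide and 20 μM ATP.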

[1] = target: T2, Ba/F3 cells containing Ros1 wild-type protein (Homo sapiens, UniProt P08922, cells depend on it, form not given); assay: Ba/F3-Ros1 cell proliferation assay, wild-type Ros1; type: cell-based, murine; conditions: without IL-3
T2 construct: The background only speaks of 'a number of different unrelated proteins' and names SLC34A2-ROS1 for HCC78 cells
T2 sequence (P08922 whole entry, stated change not applied): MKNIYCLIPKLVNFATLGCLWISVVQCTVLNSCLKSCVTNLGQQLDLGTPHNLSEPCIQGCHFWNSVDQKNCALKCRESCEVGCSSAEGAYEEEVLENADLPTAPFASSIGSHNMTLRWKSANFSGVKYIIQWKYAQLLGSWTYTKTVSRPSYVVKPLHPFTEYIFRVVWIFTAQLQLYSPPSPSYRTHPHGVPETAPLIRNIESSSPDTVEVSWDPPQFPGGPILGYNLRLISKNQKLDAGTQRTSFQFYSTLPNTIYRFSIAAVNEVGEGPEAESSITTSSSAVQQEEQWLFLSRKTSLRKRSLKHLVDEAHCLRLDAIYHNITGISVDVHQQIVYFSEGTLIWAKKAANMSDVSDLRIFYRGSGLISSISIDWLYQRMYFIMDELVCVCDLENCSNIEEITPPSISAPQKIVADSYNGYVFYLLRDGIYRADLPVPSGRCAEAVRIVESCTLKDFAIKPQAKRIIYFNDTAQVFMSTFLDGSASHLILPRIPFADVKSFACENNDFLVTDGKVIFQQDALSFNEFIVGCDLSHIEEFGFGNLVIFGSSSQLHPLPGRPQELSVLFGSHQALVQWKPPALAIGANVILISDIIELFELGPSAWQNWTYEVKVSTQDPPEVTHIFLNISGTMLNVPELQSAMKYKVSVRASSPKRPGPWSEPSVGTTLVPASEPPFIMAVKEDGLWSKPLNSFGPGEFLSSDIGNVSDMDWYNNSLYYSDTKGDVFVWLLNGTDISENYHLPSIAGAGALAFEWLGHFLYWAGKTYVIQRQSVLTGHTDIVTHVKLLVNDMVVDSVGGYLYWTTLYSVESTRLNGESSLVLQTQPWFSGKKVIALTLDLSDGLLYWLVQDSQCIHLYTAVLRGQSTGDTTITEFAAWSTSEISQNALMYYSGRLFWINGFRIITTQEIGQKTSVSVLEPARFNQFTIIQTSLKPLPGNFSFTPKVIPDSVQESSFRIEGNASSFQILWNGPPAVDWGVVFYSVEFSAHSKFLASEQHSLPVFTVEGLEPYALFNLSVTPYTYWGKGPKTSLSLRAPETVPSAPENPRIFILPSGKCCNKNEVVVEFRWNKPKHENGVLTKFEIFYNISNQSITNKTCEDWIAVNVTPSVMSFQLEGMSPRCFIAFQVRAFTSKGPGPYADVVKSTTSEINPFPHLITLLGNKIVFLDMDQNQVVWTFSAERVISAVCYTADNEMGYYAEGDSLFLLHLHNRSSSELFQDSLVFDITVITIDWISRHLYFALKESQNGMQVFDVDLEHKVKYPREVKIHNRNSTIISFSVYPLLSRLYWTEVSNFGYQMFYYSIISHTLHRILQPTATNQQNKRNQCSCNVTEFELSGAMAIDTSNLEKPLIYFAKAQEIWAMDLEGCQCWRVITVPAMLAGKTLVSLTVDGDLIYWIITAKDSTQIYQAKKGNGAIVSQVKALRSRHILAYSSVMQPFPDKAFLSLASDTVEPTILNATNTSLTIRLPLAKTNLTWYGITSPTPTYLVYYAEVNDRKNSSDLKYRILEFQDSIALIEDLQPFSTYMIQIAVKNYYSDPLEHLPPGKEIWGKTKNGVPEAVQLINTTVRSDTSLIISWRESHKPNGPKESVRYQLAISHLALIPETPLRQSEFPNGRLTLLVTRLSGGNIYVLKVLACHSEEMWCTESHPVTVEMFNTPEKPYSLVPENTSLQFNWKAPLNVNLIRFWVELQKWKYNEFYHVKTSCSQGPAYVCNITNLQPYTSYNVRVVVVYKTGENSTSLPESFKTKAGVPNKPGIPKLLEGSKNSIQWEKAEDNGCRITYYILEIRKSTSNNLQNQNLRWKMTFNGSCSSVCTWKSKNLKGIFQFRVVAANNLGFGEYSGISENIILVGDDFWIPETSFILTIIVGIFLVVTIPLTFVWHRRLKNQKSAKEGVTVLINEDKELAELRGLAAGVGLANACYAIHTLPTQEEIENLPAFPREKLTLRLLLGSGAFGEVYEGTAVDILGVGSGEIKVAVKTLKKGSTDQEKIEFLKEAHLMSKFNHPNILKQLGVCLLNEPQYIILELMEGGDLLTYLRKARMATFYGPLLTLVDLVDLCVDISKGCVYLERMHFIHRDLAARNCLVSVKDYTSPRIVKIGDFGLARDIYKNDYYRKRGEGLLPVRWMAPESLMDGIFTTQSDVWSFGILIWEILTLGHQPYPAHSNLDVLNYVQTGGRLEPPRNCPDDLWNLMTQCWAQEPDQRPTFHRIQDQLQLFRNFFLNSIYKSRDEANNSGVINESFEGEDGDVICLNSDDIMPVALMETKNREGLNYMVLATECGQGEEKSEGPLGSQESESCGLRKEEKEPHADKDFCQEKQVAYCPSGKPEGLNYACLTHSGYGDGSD
Outline: (§1)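 Ba/F3 cells expressing wild-type, L2026M or G2032R Ros1, 20000 cells/well in phenol red-free RPMI-1640 with 10% FBS, 2 mM L-glutamine, exposed to compound for 24 h at 37 °C, 5% CO2. Viability read by Alamar Blue (resazurin) fluorescence, ex 540/em 590 nm, after 4 h further incubation.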

[2] = target: Ba/F3 cells containing Ros1 with a mutation at the gatekeeper residue (L2026M) (Homo sapiens, UniProt P08922, L2026M, cells depend on it, form not given); assay: Ba/F3-Ros1 cell proliferation assay, L2026M gatekeeper mutant; type: cell-based, murine; conditions: without IL-3
Ba/F3 cells containing Ros1 with a mutation at the gatekeeper residue (L2026M), sequence (P08922 whole entry L2026M, form open): as the sequence (P08922 whole entry, stated change not applied) above, with L2026M counted along it
Outline: as §1

[3] = system: Ba/F3 cells containing Ros1 wild-type protein + IL-3; assay: Ba/F3-Ros1 cell proliferation counter-screen, wild-type protein in the presence of 10 ng/ml murine IL-3; type: cell-based; conditions: Mus musculus, BaF3, 24 h, read-out: BaF3-ROS1 + IL3 pIC50 (converted)
Outline: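 Wild-type Ros1 Ba/F3 cells, cultured with 10 ng/ml murine IL-3, are exposed to compound for 24 h at 37 °C; Alamar Blue fluorescence after 4 h reports cell viability.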

[4] = system: HCC78 non-small cell lung cancer cells; assay: HCC78 cell proliferation assay; type: cell-based; conditions: for EC50: Homo sapiens, HCC78, 96 h, read-out: HCC-78 PROL pEC50 (converted)
Procedure: HCC78 Cell Proliferation Assay
Approximately 1000 HCC78 non-small cell lung cancer cells in 180 μl of cell culture medium (RPMI-1640, 10% FBS, 2 mM L-Glutamine, 10 mM Hepes, 1 mM sodium pyruvate, 4.5 g/L glucose, 1.5 g/L sodium bicarbonate, 25 μg/ml Gentamycin) were seeded in each well of a 96-well polystyrene, tissue-culture treated plate and incubated at 37° C. and 5% CO2. After 24 hours, compounds were diluted in cell culture medium from which 20 μl was added to the wells containing cells and incubated for 4 days at 37° C. and 5% CO2. A 5 mg/ml solution of the tetrazolium dye MTT was prepared in PBS (phosphate-buffered saline) and 25 μl was added to each well. After 2 hours the medium was removed and replaced by 125 μL of 4/1 DMSO/glycine buffer (0.1M glycine, 0.1M NaCl, pH 10.5) before absorbance was determined at 538 nm.

[5] = counter-screen, wild-type, 10 ng/ml murine IL-3

| SMILES | BaF3-ROS1-IL3 pIC50 [1] | melting point [°C] | EC50 ([4]; HCC78 cells, 4 days, MTT) [nM] | HCC-78 PROL pEC50 ([4]; HCC78 cells, 4 days, MTT) | ROS1 pIC50 (Ros1 enzyme) | IC50 (Ros1 enzyme) [nM] | Ba/F3 Ros1 L2026M (-IL-3) pIC50 [2] | CC50 [3] [nM] | EC50 [4] [nM] | CC50 [3, 5] [nM] |
| --- | --- | --- | --- | --- | --- | --- | --- | --- | --- | --- |
| CC(C)Cc1ccc(COc2ccc(-c3c(-c4ccncc4)nn4c3C(=O)N(CCO)CC4)cc2)cc1 [Compound 109] | 7.1 | 155 | – | – | – | 100 | 7.2 | > 10000 | 398 | – |
| CC(C)c1ccc(COc2ccc(-c3c(-c4ccncc4)nn4c3C(=O)N(CCO)CC4)cc2)cc1C#N [Compound 87] | 7.3 | 160 | – | – | – | 39.8 | 7.2 | > 10000 | 200 | – |
| CC(C)NC(=O)CN1CCn2nc(-c3ccncc3)c(-c3ccc(OCc4ccc(C(C)C)cc4)cc3)c2C1=O [Compound 65] | 7.2 | 159 | – | – | – | 100 | 6.7 | > 10000 | 316 | – |
| COc1cc(C(C)C)ccc1COc1ccc(-c2c(-c3ccncc3)nn3c2C(=O)NCC3)cc1 [Compound 216] | 7.3 | 200 | – | – | – | 63.1 | 6.9 | > 10000 | 631 | – |
| CC(C)c1ccc(COc2ncc(-c3c(-c4ccncc4)nn4c3C(=O)NCC4)cn2)cc1 [Compound 75] | 7.9 | 126 | – | – | – | 12.6 | 7.5 | > 10000 | 63.1 | – |
| N#CC1(c2ccc(COc3ccc(-c4c(-c5ccncc5)nn5c4C(=O)NCC5)cc3)cc2)CC1 [Compound 123] | 7.4 | 260 | – | – | – | 39.8 | 7.1 | > 10000 | 398 | – |
| CC(C)OCC(O)CN1CCn2nc(-c3ccncc3)c(-c3ccc(OCc4ccc(C(C)C)cc4)cc3)c2C1=O (centres unmarked) [Compound 45] | 6.7 | 148 | – | – | – | 158 | 6.6 | > 10000 | 1260 | – |
| Cc1cc(-c2c(-c3ccncc3)nn3c2C(=O)N(CCO)CC3)cc(C)c1OCc1ccc(C(C)C)cc1 [Compound 30] | <5 | 170 | – | – | – | > 10000 | <5 | > 10000 | > 10000 | – |
| CNCC1Cn2nc(-c3ccncc3)c(-c3ccc(OCc4ccc(C(C)C)cc4)cc3)c2C(=O)N1 (centres unmarked) [Compound 194] | 6.6 | 230 | – | – | – | 79.4 | 6.2 | 6310 | 501 | – |
| CC(C)c1ccc(COc2ccc(-c3c(-c4ccncc4)nn4c3C(=O)N(CCNCC(F)(F)F)CC4)cc2)cc1 [Compound 62] | 7.0 | – | – | – | – | 200 | 6.6 | > 10000 | 501 | – |
| CNCCc1cc(COc2ccc(-c3c(-c4ccncc4)nn4c3C(=O)NCC4)cc2)ccc1C(C)C [Compound 234] | 7.1 | – | – | – | – | 20 | 6.7 | > 10000 | 126 | – |
| CC(C)c1ccc(COc2cc(F)c(-c3c(-c4ccncc4)nn4c3C(=O)N(CCO)CC4)cc2F)cc1 [Compound 203] | 8.2 | – | – | – | – | 3.98 | 8.0 | > 10000 | 10 | – |
| CC(C)c1ccc(COc2ccc(-c3c(-c4ccncc4)nn4c3C(=O)N(C)C(CO)C4)cc2)cc1 (centres unmarked) [Compound 196] | 6.9 | – | – | – | – | 158 | 6.4 | > 10000 | 631 | – |

Continued, in another order:

| BaF3-ROS1-IL3 pIC50 [1] | melting point [°C] | EC50 ([4]; HCC78 cells, 4 days, MTT) [nM] | HCC-78 PROL pEC50 ([4]; HCC78 cells, 4 days, MTT) | ROS1 pIC50 (Ros1 enzyme) | SMILES | IC50 (Ros1 enzyme) [nM] | Ba/F3 Ros1 L2026M (-IL-3) pIC50 [2] | CC50 [3] [nM] | EC50 [4] [nM] | CC50 [3, 5] [nM] |
| --- | --- | --- | --- | --- | --- | --- | --- | --- | --- | --- |
| 7.8 | 290 | 39.8 | – | – | CC(C)c1ccc(C2COc3cc(-c4c(-c5ccncc5)nn5c4C(=O)NCC5)ccc3O2)cc1 (centres unmarked) [Compound 201] | 25.1 | 7.4 | – | – | > 10000 |
| 6.9 | 95 | 398 | – | – | CC(C)c1ccc(COc2ccc(-c3c(-c4ccncc4)nn4c3CN(CC(=O)N(C)C)CC4)cc2)cc1 [Compound 177] | 200 | 6.6 | – | – | > 10000 |
| 7.4 | 191 | – | 7.1 | – | CC(C)c1ccc(COc2ccc(-c3c(-c4ccncc4)nn4c3C(=O)N(CC(O)CO)CC4)cc2)cc1 (centres unmarked) [Compound 41] | 31.6 | 6.6 | – | – | – |
| 7.9 | 144 | – | 7.3 | – | CC(C)c1ccc(COc2ccc(-c3c(-c4ccncc4)nn4c3C(=O)N(C(C)CO)CC4)cc2)cc1 (single isomer, unassigned) [Compound 38] | 12.6 | 7.5 | – | – | – |
| 6.3 | 233 | 1000 | – | – | CC(C)(CN)c1ccc(COc2ccc(-c3c(-c4ccncc4)nn4c3C(=O)NCC4)cc2)cc1 [Compound 121] | – | 5.9 | – | – | > 10000 |
| 7.3 | 197 | – | 6.5 | – | CC(O)CN1CCn2nc(-c3ccncc3)c(-c3ccc(OCc4ccc(C5CC5)cc4)cc3)c2C1=O (centres unmarked) [Compound 135] | 158 | 7.0 | – | – | – |
| 6.9 | 151 | – | 6.2 | 6.8 | CC(O)CN1CCn2nc(-c3ccncc3)c(-c3ccc(OCc4ccc(C(C)C)cc4)cc3)c2C1 (centres unmarked) [Compound 192] | – | 6.9 | – | – | – |
| 6.9 | 228 | – | 5.9 | 6.8 | CC(C)c1cc(F)c(COc2ccc(-c3c(-c4ccncc4)nn4c3C(=O)N(CC(O)CO)CC4)cc2)c(F)c1 (centres unmarked) [Compound 96] | – | 6.6 | – | – | – |
| 6.8 | 227 | – | 6.4 | – | CC(C)c1cc(F)c(COc2ccc(-c3c(-c4ccncc4)nn4c3C(=O)N(CC(O)CO)CC4)cc2)c(F)c1 (centres unmarked) [Compound 95] | 158 | – | – | – | > 10000 |
| 6.6 | 183 | – | 5.7 | – | CC(C)c1cc(F)c(COc2ccc(-c3c(-c4ccncc4)nn4c3C(=O)N(CC(O)CO)CC4)cc2)cc1F (centres unmarked) [Compound 99] | 501 | 6.0 | – | – | – |
| 6.7 | – | 316 | – | – | CNCCc1cc(COc2ccc(-c3c(-c4ccncc4)nn4c3C(=O)N(CCO)CC4)cc2)ccc1C(C)C [Compound 235] | 25.1 | 6.5 | – | – | > 10000 |
| 6.4 | – | 501 | – | – | CC(C)c1ccc(COc2ccc(-c3c(-c4ccncc4)nn4c3C(=O)N(CCN)CC4)cc2)cc1 [Compound 59] | 63.1 | ~6.1 | – | – | 5010 |
| 6.3 | – | 3160 | – | – | CNC(=O)C(Oc1ccc(-c2c(-c3ccncc3)nn3c2C(=O)NCC3)cc1)c1ccc(C(C)C)cc1 (centres unmarked) [Compound 217] | 398 | 6.0 | – | – | > 10000 |
| 7.8 | 188 | – | 7.7 | 7.9 | CC(C)c1ccc(COc2ccc(-c3c(-c4ccncc4)nn4c3C(=O)N(CC(O)CO)CC4)c(F)c2)cc1 (centres unmarked) [Compound 22] | – | 7.4 | – | – | – |
